Test results reported in patent US20250171451A1, “NOVEL HETEROCYCLIC COMPOUND AND PHARMACEUTICAL COMPOSITION COMPRISING SAME” (Samjin Pharmaceutical Co., Ltd., priority 2022, published 2025).

Assays:
[1] = test system: TEAD response element (TRE) luciferase reporter in MCF-7 cell lines; experiment: TEAD response element (TRE) reporter assay; type: cell-based; settings: 0.2 μM compound, 24 hours, MCF-7 TEAD reporter cells, relative to vehicle (1% DMSO); for inhibition at 0.2 µM: Homo sapiens, MCF7
Experimental: MCF-7 cell lines injected with TEAD reporter genes expressing firefly luciferase upon activation of TEAD response element (TRE) were obtained from BPS bioscience (#60618). The TEAD reporter genes were injected to stable expression in the MCF-7 cell lines.
TEAD reporter genes expressing firefly luciferase upon activation of TEAD response element (TRE) were injected with TEAD reporter genes to ensure stable expression of the TEAD reporter genes. Here, the TEAD reporter genes expresses firefly luciferase upon activation of TEAD response element (TRE). The cells were cultured in a cell-only culture medium (BPS bioscience) to which 10 μg/mL insulin (Sigma) was added at 37° C. and 5% CO2.
In 24 hours after dispensing said cells into a 96-well plate, each of the compounds of the examples or a vehicle solvent (final 1% DMSO) was treated by being diluted with a serum-free culture medium so that the final concentration became 0.2 μM. In 24 hours after said treatment, a luciferase assay working solution (ONE-Step Luciferase assay reagent; BPS bioscience) containing a luciferase substrate was treated in each well at 100 μL, and then left in a shaker for 15 minutes to be well mixed. Then, a degree of luminescence generated by luciferase expressed according to TEAD activation was measured by a microplate reader (TECAN). A relative activity of luciferase […], and the results are shown in table 8 below.

[2] = molecular target: T1, recombinant GST-TEAD1 proteins (209 to 426 a.a.) (Homo sapiens, UniProt P28347); experiment: Evaluation of palmitoylation of TEAD protein; type: biochemical; settings: 5 μM compound, 15 minutes preincubation, 3 μM alkyne palmitoyl-CoA 30 minutes, pH 6.4, vs DMSO control
T1 construct: recombinant GST-TEAD1 proteins (209 to 426 a.a.)
Experimental: Each compound corresponding to a concentration of 5 μM was added to recombinant GST-TEAD1 proteins (209 to 426 a.a.) and cultured for 15 minutes. For an autopalmitoylation reaction of proteins after culturing, 3 μM alkyne palmitoyl-CoA (Cayman chemical) and 50 mM MES buffer (pH 6.4) were added and cultured for 30 minutes, after which 1% of sodium dodecyl sulfate (SDS) was added to stop the reaction. After that, biotinylation was performed through a CLICK (Click chemistry tools) reaction, and then a protein solution was concentrated to prepare a sample.
Analysis of the sample was performed using SDS-PAGE and streptavidin HRP (Thermo scientific). The resulting values were quantified using an Image J (NIH). For the intensity of the band obtained from Streptavidin blot, a palmitoylation inhibitory activity was analyzed based on the control group (DMSO). The normalization of each sample was performed using an anti-GST (91G1) (cell signaling) antibody.

T1 sequence (P28347 209-426): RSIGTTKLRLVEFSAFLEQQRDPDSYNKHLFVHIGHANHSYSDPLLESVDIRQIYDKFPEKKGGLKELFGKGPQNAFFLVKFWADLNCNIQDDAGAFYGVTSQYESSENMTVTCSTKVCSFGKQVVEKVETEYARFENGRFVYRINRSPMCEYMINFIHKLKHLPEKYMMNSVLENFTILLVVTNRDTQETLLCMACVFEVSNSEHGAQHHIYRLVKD

Compound | inhibition at 0.2 µM [1] [%] | inhibition at 5 µM [2] [%] | % of inhibition of TRE luciferase at 0.2 μM [1] | % of inhibition of TEAD1 palmitoylation at 5 μM [2]
C=CC(=O)Nc1cnc2c(c1)c(C)nn2-c1ccc(N)cc1 [Compound 102, N-(1-(4-aminophenyl)-3-methyl-1H-pyrazolo[3,4-b]pyridin-5-yl)acrylamide] | < 30 | < 40 |  | 
C=CC(=O)Nc1cnc2c(c1)c(C)cn2-c1ccc(OC(F)(F)F)cc1 [Compound 58, N-(3-methyl-1-(4-(trifluoromethoxy)phenyl)-1H-pyrrolo[2,3-b]pyridin-5-yl)acrylamide] | < 30 | > 80 |  | 
C=CC(=O)Nc1cnc2c(c1)c(C)cn2Cc1ccc(C(F)F)cc1 [Compound 71, N-(1-(4-(difluoromethyl)benzyl)-3-methyl-1H-pyrrolo[2,3-b]pyridin-5-yl)acrylamide] | 30 to 50 | < 40 |  | 
C=CC(=O)Nc1cc2ccn(Cc3ccc(C(F)(F)F)cc3)c2cn1 [Compound 29, N-(1-(4-(trifluoromethyl)benzyl)-1H-pyrrolo[2,3-c]pyridin-5-yl)acrylamide] | < 30 | 40 to 80 |  | 
C=CC(=O)Nc1cnc2c(c1)c(C)nn2-c1ccc(C(C)(C)C)cc1 [Compound 79, N-(1-(4-(tert-butyl)phenyl)-3-methyl-1H-pyrazolo[3,4-b]pyridin-5-yl)acrylamide] | 30 to 50 | 40 to 80 |  | 
C=CC(=O)Nc1cnc2c(c1)c(C)cn2Cc1ccc(C(F)(F)F)c(OC)c1 [Compound 53, N-(1-(3-methoxy-4-(trifluoromethyl)benzyl)-3-methyl-1H-pyrrolo[2,3-b]pyridin-5-yl)acrylamide] | > 50 | < 40 |  | 
C=CC(=O)Nc1cnc2c(c1)c(C)nn2-c1cccc(C(F)(F)F)c1 [Compound 52, N-(3-methyl-1-(3-(trifluoromethyl)phenyl)-1H-pyrazolo[3,4-b]pyridin-5-yl)acrylamide] | > 50 | 40 to 80 |  | 
Cc1cn(Cc2ccc(C(F)(F)F)cc2)c2ncc(NC(=O)C(C)C)cc12 [Compound 25, N-(3-methyl-1-(4-(trifluoromethyl)benzyl)-1H-pyrrolo[2,3-b]pyridin-5-yl)isobutyramide] | < 30 | 40 to 80 |  | 
C=CC(=O)Nc1cnc2c(c1)c(C)nn2Cc1ccc(C(C)(C)C)cc1 [Compound 60, N-(1-(4-(tert-butyl)benzyl)-3-methyl-1H-pyrazolo[3,4-b]pyridin-5-yl)acrylamide] | < 30 | 40 to 80 |  | 
C=CC(=O)Nc1cnc2c(c1)c(C)nn2-c1ccc(C#N)cc1 [Compound 104, N-(1-(4-cyanophenyl)-3-methyl-1H-pyrazolo[3,4-b]pyridin-5-yl)acrylamide] | > 50 | < 40 |  | 
C=CC(=O)Nc1ncc2cnn(Cc3ccc(C(F)(F)F)cc3)c2n1 [Compound 19, N-(1-(4-(trifluoromethyl)benzyl)-1H-pyrazolo[3,4-d]pyrimidin-6-yl)acrylamide] | < 30 | < 40 |  | 
C=CC(=O)Nc1cnc2c(c1)c(C)nn2-c1ccc(O)cc1 [Compound 98, N-(1-(4-hydroxyphenyl)-3-methyl-1H-pyrazolo[3,4-b]pyridin-5-yl)acrylamide] | < 30 | < 40 |  | 
C=CC(=O)Nc1cnc2c(c1)c(C)cn2CC1CCCC1 [Compound 9, N-(1-(cyclopentylmethyl)-3-methyl-1H-pyrrolo[2,3-b]pyridin-5-yl)acrylamide] | > 50 | > 80 |  | 
C=CC(=O)Nc1cnc2c(cnn2Cc2ccc(C(F)(F)F)cc2)n1 [Compound 16, N-(1-(4-(trifluoromethyl)benzyl)-1H-pyrazolo[3,4-b]pyrazin-5-yl)acrylamide] | > 50 | < 40 |  | 
N-(1-(4-(trifluoromethyl)benzyl)-1H-pyrazolo[3,4-b]pyridin-5-yl)acrylamide [Compound 5] |  |  | A (>50% inhibition) | A (>80% inhibition)
C=CC(=O)Nc1cnc2c(c1)c(C)nn2-c1ccc(F)cc1 [Compound 70, N-(1-(4-fluorophenyl)-3-methyl-1H-pyrazolo[3,4-b]pyridin-5-yl)acrylamide] | 30 to 50 | < 40 |  | 

Compound | inhibition at 0.2 µM [1] [%] | inhibition at 5 µM [2] [%] | % of inhibition of TRE luciferase at 0.2 μM [1] | % of inhibition of TEAD1 palmitoylation at 5 μM [2]
C=CC(=O)Nc1ncc2c(C)nn(Cc3ccc(C(F)(F)F)cc3)c2n1 [Compound 20, N-(3-methyl-1-(4-(trifluoromethyl)benzyl)-1H-pyrazolo[3,4-d]pyrimidin-6-yl)acrylamide] | < 30 | < 40 |  | 
C=CC(=O)Nc1cnc2c(cnn2CC2CCC(F)(F)CC2)c1 [Compound 11, N-(1-((4,4-difluorocyclohexyl)methyl)-1H-pyrazolo[3,4-b]pyridin-5-yl)acrylamide] | 30 to 50 | 40 to 80 |  | 
C=CC(=O)Nc1cnc2c(c1)c(C)nn2Cc1ccc(OC(F)(F)F)cc1 [Compound 49, N-(3-methyl-1-(4-(trifluoromethoxy)benzyl)-1H-pyrazolo[3,4-b]pyridin-5-yl)acrylamide] | < 30 | 40 to 80 |  | 
C=CC(=O)Nc1cnc2c(c1)c(C)cn2Cc1cccc(C(F)(F)F)c1 [Compound 55, N-(3-methyl-1-(3-(trifluoromethyl)benzyl)-1H-pyrrolo[2,3-b]pyridin-5-yl)acrylamide] | > 50 | 40 to 80 |  | 
C=CC(=O)Nc1cnc2c(c1)c(C)cn2-c1ccc(C2CCCCC2)cc1 [Compound 37, N-(1-(4-cyclohexylphenyl)-3-methyl-1H-pyrrolo[2,3-b]pyridin-5-yl)acrylamide] | < 30 | > 80 |  | 
C=CC(=O)Nc1ccc2c(c1)CCN2c1ccc(C(F)(F)F)cc1 [Compound 39, N-(1-(4-(trifluoromethyl)phenyl)indolin-5-yl)acrylamide] | 30 to 50 | 40 to 80 |  | 
C=CC(=O)Nc1cnc2c(c1)c(C)nn2-c1cnc(C(F)(F)F)c(C)c1 [Compound 99, N-(3-methyl-1-(5-methyl-6-(trifluoromethyl)pyridin-3-yl)-1H-pyrazolo[3,4-b]pyridin-5-yl)acrylamide] | > 50 | 40 to 80 |  | 
C=CC(=O)Nc1cnc2c(c1)c(C)nn2-c1ccc(F)nc1 [Compound 93, N-(1-(6-fluoropyridin-3-yl)-3-methyl-1H-pyrazolo[3,4-b]pyridin-5-yl)acrylamide] | 30 to 50 | 40 to 80 |  | 
C=CC(=O)Nc1cnc2c(c1)c(C)nn2Cc1ccc(C(F)(F)F)cc1 [Compound 13, N-(3-methyl-1-(4-(trifluoromethyl)benzyl)-1H-pyrazolo[3,4-b]pyridin-5-yl)acrylamide] | 30 to 50 | > 80 |  | 
C=CC(=O)Nc1cnc2c(c1)c(C)cn2C(=O)c1ccc(C(F)(F)F)cc1 [Compound 24, N-(3-methyl-1-(4-(trifluoromethyl)benzoyl)-1H-pyrrolo[2,3-b]pyridin-5-yl)acrylamide] | < 30 | > 80 |  | 
C=CC(=O)Nc1cnc2ncn(Cc3ccc(C(F)(F)F)cc3)c2c1 [Compound 30, N-(1-(4-(trifluoromethyl)benzyl)-1H-imidazo[4,5-b]pyridin-6-yl)acrylamide] | < 30 | 40 to 80 |  | 
CC=CC(=O)Nc1cnc2c(c1)c(C)cn2CCCC [Compound 23, N-(1-butyl-3-methyl-1H-pyrrolo[2,3-b]pyridin-5-yl)but-2-enamide] | < 30 | < 40 |  | 
C=CC(=O)Nc1cnc2c(c1)c(C)nn2-c1ccnc(C(F)(F)F)c1 [Compound 100, N-(3-methyl-1-(2-(trifluoromethyl)pyridin-4-yl)-1H-pyrazolo[3,4-b]pyridin-5-yl)acrylamide] | > 50 | < 40 |  | 
CC=CC(=O)Nc1cnc2c(c1)c(C)nn2-c1ccc(C(F)(F)F)cc1 [Compound 88, N-(3-methyl-1-(4-(trifluoromethyl)phenyl)-1H-pyrazolo[3,4-b]pyridin-5-yl)but-2-enamide] | 30 to 50 | 40 to 80 |  | 
C=CC(=O)Nc1cnc2c(c1)c(C)cn2C1CCCCC1 [Compound 57, N-(1-cyclohexyl-3-methyl-1H-pyrrolo[2,3-b]pyridin-5-yl)acrylamide] | < 30 | 40 to 80 |  | 
